Test results reported in PubChem BioAssay (NCI).
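Five concentrations, 48 hours, 96-well plates. The concentration for 50% growth inhibition is given as GI50. TGI denotes the concentration required for complete inhibition of growth.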

Assays:
Experiment in all cases: DTP human tumour cell line panel, 48 h
HCT-15 colon = system: HCT-15 colon
SK-MEL-28 melanoma = system: SK-MEL-28 melanoma
UACC-62 melanoma = system: UACC-62 melanoma
HOP-62 NSCLC = system: HOP-62 NSCLC
SW-620 colon = system: SW-620 colon
NCI-H226 lung = system: NCI-H226 lung
OVCAR-8 ovarian = system: OVCAR-8 ovarian
M14 melanoma = system: M14 melanoma
TK-10 renal = system: TK-10 renal
MCF7 breast = system: MCF7 breast

Structure (SMILES)	TGI (HCT-15 colon)	TGI (SK-MEL-28 melanoma)	TGI (UACC-62 melanoma)	TGI (HOP-62 NSCLC)	TGI (SW-620 colon)	TGI (NCI-H226 lung)	TGI (OVCAR-8 ovarian)	TGI (M14 melanoma)	TGI (TK-10 renal)	TGI (MCF7 breast)	GI50 (HCT-15 colon)	GI50 (SK-MEL-28 melanoma)	GI50 (UACC-62 melanoma)	GI50 (HOP-62 NSCLC)	GI50 (SW-620 colon)	GI50 (NCI-H226 lung)	GI50 (OVCAR-8 ovarian)	GI50 (M14 melanoma)	GI50 (TK-10 renal)	GI50 (MCF7 breast)
CC(C)(C)OC(=O)NCC(C#N)CNC(=O)OC(C)(C)C	> 100 µM	> 100 µM	> 100 µM	> 100 µM	> 100 µM	> 100 µM	> 100 µM	> 100 µM	> 100 µM	> 100 µM										
CSc1ccc(C2=Nn3c(nnc3-c3ccc(F)c(Cl)c3)SC2)cc1	> 100 µM	> 100 µM	8.19 µM	19.5 µM	> 100 µM	75.7 µM	> 100 µM	28.4 µM	21.2 µM	25.8 µM	10.1 µM	34.2 µM	2.04 µM	5.84 µM	11.6 µM	18.4 µM	22.2 µM	6.73 µM	7.52 µM	7.54 µM
CC1(C)N=C(N)N=C(N)N1c1ccc(CCc2ccccc2)c(Cl)c1	> 100 µM	15.9 µM	11.7 µM	12.4 µM	13.8 µM	17.1 µM	13.6 µM	13.7 µM	18.3 µM	13 µM	2.55 µM	0.391 µM	0.0572 µM	0.268 µM	0.0388 µM	0.521 µM	0.0897 µM	0.124 µM	1.96 µM	0.058 µM
CC1(C)CCC(C)(C)c2cc(C(=O)Nc3ccc(C(=O)O)cc3)ccc21	63 µM	> 90.8 µM	41.2 µM	37.5 µM	> 100 µM	> 65.5 µM	> 88.5 µM	51.1 µM	> 73.3 µM	> 100 µM										
COC(=O)c1ccc2c(c1)C(NC(C)=O)CCc1cc(OC)c(OC)c(OC)c1-2 (stereo not given)	> 44.3 µM	> 100 µM	> 100 µM	52.4 µM	> 100 µM	1.17 µM	9.1 µM	> 31.6 µM	> 100 µM	> 100 µM										
C=C1C(=O)O[C@@H]2C[C@@]3(C)CC(=O)C=C(C)[C@@H]3C[C@H]12	15.2 µM	41.9 µM	30.4 µM	34.4 µM	22.6 µM	> 100 µM	42.9 µM	32.7 µM	25.7 µM	14.9 µM										
Cc1ccc(C(=O)Nc2ccc(CN3CCN(C)CC3)c(C(F)(F)F)c2)cc1C#Cc1cnc(N)c2ccc(F)cc12	0.456 µM	0.918 µM	1.02 µM	3.44 µM	0.638 µM	3.66 µM	2.37 µM	0.441 µM	2.72 µM	0.861 µM	0.112 µM	0.41 µM	0.329 µM	0.753 µM	0.251 µM	0.737 µM	0.297 µM	0.0881 µM	0.416 µM	0.441 µM
C[C@]12CC[C@@H]3c4ccc(O)c([N+](=O)[O-])c4CC[C@H]3[C@@H]1CC[C@@H]2NS(=O)(=O)c1ccc(C(F)(F)F)cc1	3.58 µM	3.66 µM	2.78 µM	3.58 µM	4.78 µM	3.78 µM	8.3 µM	3.91 µM	7.26 µM	4.23 µM	1.71 µM	1.99 µM	1.34 µM	1.83 µM	2.04 µM	1.62 µM	2.46 µM	1.92 µM	2.77 µM	1.91 µM
C#C[C@]1(O)CC[C@H]2[C@@H]3CC=C4c5nc(Nc6ccccn6)sc5CC[C@]4(C)[C@H]3CC[C@@]21C	2.94 µM	1.01 µM	2.68 µM	2.95 µM	2.91 µM	3.91 µM	7.89 µM	3.21 µM	5.08 µM	3.73 µM	1.27 µM	0.279 µM	1.15 µM	1.11 µM	1.24 µM	1.51 µM	1.77 µM	1.14 µM	2.22 µM	0.968 µM
COc1ccc(C2SC(N)=Nc3c2c(C)nn3C(=O)c2ccc(Cl)cc2)cc1OC (stereo not given)	> 10 µM	> 10 µM	> 10 µM	> 10 µM	> 10 µM	> 10 µM	> 10 µM	> 10 µM	> 10 µM	> 10 µM										
COC1/C=C/OC2(C)Oc3c(C)c(O)c4c(c3C2=O)C(=O)C=C(NC(=O)/C(C)=C\C=C\C(C)C(OC=O)C(C)C(O)C(C)C(OC(C)=O)C1C)C4=O (stereo not given)	22.7 µM	15 µM	27.9 µM	34.8 µM	14 µM	21.5 µM	33.5 µM	19.5 µM	30.4 µM	7.29 µM										
